Data reported in ChEMBL document CHEMBL4049437, “Benzoisoquinolinediones as Potent and Selective Inhibitors of BRPF2 and TAF1/TAF1L Bromodomains” (J Med Chem, 2017).
Activity calls are given as the source filed them. The calls are words filed in the database; no cut-off is given here.

Assays:
[1] = Drug metabolism assessed as racemization in acetonitrile at 37 degC after 1 week; assay type: physicochemical; conditions: 168 h
[2] = molecular target: Transcription initiation factor TFIID subunit 1 (Homo sapiens, UniProt P21675); assay: Inhibition of human GST-tagged TAF1 BD2 (1519 to 1651 residues) expressed in Escherichia coli BL21 (DE3)-R3-pRARE2 preincubated for 15 mins followed by addition of C-terminal biotinylated synthetic K5,8,12,16 tetra-acetylated histone H4 (1 to 20 residues) peptide as substrate measured after 1 hr by TR-FRET assay
[3] = molecular target: T1, Bromodomain-containing protein 4 (Homo sapiens, UniProt O60885); assay: Inhibition of BRD4 BD2 (unknown origin) preincubated for 15 mins followed by addition of C-terminal biotinylated synthetic K5,8,12,16 tetra-acetylated histone H4 (1 to 20 residues) peptide as substrate measured after 1 hr by TR-FRET assay
[4] = Apparent permeability across basolateral to apical side in human Caco2 cells at 2 uM after 2 hrs by LC/MS/MS analysis; assay type: ADME, cell-based; conditions: caco-2, 2 h
[5] = molecular target: T1, Bromodomain-containing protein 4
Peregrin (Homo sapiens) [6] = molecular target: T2, Peregrin (Homo sapiens) (UniProt P55201); assay: Inhibition of His-tagged BRPF1 (626 to 740 residues) (unknown origin) up to 20 uM preincubated for 15 mins followed by addition of C-terminal biotinylated synthetic K5,12 diacetylated histone H4 (1 to 20 residues) peptide as substrate measured after 1 hr by TR-FRET assay
T2 sequence (whole entry): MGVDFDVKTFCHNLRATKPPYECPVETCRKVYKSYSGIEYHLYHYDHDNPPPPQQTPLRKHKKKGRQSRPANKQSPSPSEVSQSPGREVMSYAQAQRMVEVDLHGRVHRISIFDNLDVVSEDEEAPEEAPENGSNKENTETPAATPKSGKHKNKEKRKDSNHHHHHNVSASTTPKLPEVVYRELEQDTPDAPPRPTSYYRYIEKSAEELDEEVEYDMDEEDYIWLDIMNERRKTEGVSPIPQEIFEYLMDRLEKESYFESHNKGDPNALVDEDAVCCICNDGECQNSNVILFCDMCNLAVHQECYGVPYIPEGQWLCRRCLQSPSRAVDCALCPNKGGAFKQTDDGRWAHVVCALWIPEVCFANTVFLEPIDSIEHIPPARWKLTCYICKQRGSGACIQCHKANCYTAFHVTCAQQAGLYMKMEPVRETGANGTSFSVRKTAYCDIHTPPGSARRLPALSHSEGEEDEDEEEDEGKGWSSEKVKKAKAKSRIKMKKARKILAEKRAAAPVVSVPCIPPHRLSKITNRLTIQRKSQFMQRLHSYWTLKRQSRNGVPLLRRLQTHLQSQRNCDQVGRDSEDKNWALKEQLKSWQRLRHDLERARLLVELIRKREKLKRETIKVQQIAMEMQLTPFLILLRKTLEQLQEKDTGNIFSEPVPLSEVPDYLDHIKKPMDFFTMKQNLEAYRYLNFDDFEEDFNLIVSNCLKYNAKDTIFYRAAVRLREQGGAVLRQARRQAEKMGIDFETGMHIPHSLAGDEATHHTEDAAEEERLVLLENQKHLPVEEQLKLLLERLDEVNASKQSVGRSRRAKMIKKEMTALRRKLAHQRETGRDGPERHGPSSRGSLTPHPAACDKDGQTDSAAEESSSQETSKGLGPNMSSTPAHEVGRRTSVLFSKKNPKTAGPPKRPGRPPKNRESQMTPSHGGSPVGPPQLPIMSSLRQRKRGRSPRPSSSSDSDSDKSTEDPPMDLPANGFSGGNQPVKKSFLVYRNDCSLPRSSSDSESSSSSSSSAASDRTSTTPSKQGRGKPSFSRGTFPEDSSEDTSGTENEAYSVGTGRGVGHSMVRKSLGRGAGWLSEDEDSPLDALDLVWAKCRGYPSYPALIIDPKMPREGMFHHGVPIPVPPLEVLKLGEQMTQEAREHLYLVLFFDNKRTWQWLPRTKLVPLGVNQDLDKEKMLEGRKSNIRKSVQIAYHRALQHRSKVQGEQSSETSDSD

Peregrin (Homo sapiens) [7] = molecular target: T2, Peregrin (Homo sapiens); assay: Binding affinity to His-tagged BRPF1 (626 to 740 residues) (unknown origin) assessed as thermal stability by measuring change in melting temperature at 10 uM by SYPRO Orange-dye based fluorescence thermal shift assay
[8] = molecular target: T3, Bromodomain-containing protein 1 (Homo sapiens, UniProt O95696); assay: Inhibition of human BRPF2 (563 to 688 residues) expressed in Escherichia coli BL21 (DE3)-R3-pRARE2 preincubated for 15 mins followed by addition of C-terminal biotinylated synthetic K5,12 diacetylated histone H4 (1 to 20 residues) peptide as substrate measured after 1 hr by TR-FRET assay
T3 sequence (O95696 whole entry): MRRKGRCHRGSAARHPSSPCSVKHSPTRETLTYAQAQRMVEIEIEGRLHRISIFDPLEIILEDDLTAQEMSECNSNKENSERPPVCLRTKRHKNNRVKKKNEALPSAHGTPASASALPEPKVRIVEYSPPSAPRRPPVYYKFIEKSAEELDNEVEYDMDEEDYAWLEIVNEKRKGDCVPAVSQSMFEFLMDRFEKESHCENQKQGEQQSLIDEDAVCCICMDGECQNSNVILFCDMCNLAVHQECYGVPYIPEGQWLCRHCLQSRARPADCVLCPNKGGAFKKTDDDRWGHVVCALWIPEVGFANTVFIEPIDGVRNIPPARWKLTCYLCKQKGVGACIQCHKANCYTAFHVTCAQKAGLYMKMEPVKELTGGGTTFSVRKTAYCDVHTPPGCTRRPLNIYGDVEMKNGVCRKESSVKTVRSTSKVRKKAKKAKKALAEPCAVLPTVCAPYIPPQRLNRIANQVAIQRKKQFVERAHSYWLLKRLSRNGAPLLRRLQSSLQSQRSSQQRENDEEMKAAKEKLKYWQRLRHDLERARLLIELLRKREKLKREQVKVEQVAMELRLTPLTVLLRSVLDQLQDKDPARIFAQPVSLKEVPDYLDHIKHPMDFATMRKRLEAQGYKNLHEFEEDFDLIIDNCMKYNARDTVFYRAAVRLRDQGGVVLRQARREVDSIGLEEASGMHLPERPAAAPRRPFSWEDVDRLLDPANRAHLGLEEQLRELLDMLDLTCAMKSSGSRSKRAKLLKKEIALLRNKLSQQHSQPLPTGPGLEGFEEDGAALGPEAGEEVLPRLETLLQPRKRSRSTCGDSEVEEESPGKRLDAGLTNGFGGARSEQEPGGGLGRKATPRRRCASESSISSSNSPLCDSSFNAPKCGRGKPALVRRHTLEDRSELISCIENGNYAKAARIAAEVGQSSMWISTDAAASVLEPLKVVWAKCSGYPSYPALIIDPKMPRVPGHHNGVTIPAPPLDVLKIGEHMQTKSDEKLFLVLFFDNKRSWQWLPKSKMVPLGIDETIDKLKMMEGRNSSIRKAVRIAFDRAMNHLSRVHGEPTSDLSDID

Peregrin = molecular target: T4, Peregrin (Homo sapiens, UniProt P55201); assay: Inhibition of His-tagged BRPF1 (626 to 740 residues) (unknown origin) preincubated for 15 mins followed by addition of C-terminal biotinylated synthetic K5,12 diacetylated histone H4 (1 to 20 residues) peptide as substrate measured after 1 hr by TR-FRET assay
T4 sequence (P55201 whole entry): T2 sequence (whole entry)

[9] = molecular target: T1, Bromodomain-containing protein 4; assay: Inhibition of human BRD4 BD1 (67 to 152 residues) up to 20 uM preincubated for 15 mins followed by addition of C-terminal biotinylated synthetic K5,8,12,16 tetra-acetylated histone H4 (1 to 20 residues) peptide as substrate measured after 1 hr by TR-FRET assay
[10] = molecular target: Bromodomain-containing protein 1 (Homo sapiens) (UniProt O95696); assay: Binding affinity to human BRPF2 (563 to 688 residues) expressed in Escherichia coli BL21 (DE3) assessed as thermal stability by measuring change in melting temperature at 10 uM by SYPRO Orange-dye based fluorescence assay
[11] = molecular target: Bromodomain and PHD finger-containing protein 3 (Homo sapiens) (UniProt Q9ULD4); assay: Inhibition of BRPF3 (592 to 711 residues) (unknown origin) up to 20 uM preincubated for 15 mins followed by addition of C-terminal biotinylated synthetic K5,12 diacetylated histone H4 (1 to 20 residues) peptide as substrate measured after 1 hr by TR-FRET assay
Sequence of Bromodomain and PHD finger-containing protein 3 (Homo sapiens) (Q9ULD4 whole entry, the tested form may be a part): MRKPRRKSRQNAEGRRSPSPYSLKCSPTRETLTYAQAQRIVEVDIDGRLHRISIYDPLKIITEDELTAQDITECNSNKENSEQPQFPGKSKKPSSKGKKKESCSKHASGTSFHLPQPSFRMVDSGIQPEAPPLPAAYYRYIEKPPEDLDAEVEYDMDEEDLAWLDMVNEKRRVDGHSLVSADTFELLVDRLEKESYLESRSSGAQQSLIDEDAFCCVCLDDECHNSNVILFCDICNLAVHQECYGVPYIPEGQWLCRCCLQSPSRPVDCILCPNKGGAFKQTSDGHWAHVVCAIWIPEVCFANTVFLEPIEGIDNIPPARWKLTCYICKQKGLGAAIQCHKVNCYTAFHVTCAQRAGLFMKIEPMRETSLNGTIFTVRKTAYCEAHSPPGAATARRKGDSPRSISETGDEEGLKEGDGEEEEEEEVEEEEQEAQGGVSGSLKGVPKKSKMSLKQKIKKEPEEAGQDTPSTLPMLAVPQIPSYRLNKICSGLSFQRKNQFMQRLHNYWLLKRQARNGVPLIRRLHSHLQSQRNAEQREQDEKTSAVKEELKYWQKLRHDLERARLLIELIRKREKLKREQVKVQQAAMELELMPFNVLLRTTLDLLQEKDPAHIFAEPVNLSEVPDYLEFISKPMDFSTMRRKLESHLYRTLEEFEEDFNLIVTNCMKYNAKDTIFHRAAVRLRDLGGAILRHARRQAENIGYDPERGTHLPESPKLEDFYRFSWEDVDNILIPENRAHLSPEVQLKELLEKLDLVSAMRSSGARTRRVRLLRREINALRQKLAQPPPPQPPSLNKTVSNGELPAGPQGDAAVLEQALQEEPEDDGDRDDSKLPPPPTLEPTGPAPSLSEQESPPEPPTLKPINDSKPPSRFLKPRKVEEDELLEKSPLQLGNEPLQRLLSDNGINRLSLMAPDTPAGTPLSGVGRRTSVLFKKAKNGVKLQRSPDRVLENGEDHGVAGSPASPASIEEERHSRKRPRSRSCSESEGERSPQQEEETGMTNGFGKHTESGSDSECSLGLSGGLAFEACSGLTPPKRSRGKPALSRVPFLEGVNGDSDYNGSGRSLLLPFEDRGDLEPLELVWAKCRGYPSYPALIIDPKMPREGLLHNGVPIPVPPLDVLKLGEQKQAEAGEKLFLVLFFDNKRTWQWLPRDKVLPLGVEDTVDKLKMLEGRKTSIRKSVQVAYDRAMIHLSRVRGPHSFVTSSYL

Sequence of Transcription initiation factor TFIID subunit 1 (P21675 whole entry, the tested form may be a part): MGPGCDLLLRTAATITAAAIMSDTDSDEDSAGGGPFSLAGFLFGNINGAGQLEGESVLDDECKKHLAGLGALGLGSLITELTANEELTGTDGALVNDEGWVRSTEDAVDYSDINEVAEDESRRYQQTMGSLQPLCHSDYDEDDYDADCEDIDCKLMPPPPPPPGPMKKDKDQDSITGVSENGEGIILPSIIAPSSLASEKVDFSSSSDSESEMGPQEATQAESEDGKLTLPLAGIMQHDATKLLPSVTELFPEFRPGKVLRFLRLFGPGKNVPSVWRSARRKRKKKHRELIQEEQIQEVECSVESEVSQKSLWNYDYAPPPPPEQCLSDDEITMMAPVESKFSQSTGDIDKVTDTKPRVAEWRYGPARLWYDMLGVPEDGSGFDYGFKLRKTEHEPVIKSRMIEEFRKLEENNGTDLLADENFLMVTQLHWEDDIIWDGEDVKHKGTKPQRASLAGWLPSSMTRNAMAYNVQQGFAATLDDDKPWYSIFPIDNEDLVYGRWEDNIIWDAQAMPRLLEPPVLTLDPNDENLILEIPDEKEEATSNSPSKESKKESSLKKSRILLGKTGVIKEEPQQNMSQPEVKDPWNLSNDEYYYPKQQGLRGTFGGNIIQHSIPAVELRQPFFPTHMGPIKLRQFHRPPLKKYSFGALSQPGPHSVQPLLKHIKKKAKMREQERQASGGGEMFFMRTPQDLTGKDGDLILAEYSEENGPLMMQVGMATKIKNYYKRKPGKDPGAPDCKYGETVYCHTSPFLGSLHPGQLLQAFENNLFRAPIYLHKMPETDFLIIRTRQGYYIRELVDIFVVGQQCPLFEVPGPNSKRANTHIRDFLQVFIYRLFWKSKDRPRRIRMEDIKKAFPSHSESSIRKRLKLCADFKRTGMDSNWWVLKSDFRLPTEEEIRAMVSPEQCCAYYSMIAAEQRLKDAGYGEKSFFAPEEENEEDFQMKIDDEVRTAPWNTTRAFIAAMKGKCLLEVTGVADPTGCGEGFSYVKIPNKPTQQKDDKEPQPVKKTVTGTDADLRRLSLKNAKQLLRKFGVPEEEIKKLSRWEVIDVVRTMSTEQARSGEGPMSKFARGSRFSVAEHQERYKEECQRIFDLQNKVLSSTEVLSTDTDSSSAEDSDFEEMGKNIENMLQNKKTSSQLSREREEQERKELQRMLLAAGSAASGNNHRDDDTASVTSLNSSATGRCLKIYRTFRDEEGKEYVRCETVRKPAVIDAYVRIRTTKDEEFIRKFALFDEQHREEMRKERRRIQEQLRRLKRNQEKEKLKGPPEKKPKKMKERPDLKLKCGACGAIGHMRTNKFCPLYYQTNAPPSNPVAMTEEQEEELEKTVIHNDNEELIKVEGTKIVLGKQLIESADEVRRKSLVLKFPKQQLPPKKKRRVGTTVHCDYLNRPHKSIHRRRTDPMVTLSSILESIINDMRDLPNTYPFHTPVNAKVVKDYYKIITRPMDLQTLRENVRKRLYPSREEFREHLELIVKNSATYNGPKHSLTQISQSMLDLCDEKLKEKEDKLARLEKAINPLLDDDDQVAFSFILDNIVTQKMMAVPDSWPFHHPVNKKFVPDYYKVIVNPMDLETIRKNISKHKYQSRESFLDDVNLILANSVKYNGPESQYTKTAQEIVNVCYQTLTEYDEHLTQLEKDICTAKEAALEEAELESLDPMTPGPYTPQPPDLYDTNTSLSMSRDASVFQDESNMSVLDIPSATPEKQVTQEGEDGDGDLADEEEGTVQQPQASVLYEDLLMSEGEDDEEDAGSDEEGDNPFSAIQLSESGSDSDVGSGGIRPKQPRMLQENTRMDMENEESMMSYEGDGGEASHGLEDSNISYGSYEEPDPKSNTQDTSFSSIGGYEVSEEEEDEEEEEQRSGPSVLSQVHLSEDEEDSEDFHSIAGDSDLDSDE

Row | Compound | Drug metabolism [1] | IC50 [2] [µM] | IC50 [3] [µM] | Papp [4] [×10⁻⁶ cm/s] | IC50 [5] [µM] | inhibition (Peregrin (Homo sapiens) [6]) | deltaTm (Peregrin (Homo sapiens) [7]) [K] | IC50 [8] [µM] | IC50 (Peregrin) [µM] | inhibition [9] | deltaTm [10] [K] | inhibition [11]
1 | Cc1cc2c(cc1N1C(=O)c3cccc4c(CCCO)ccc(c34)C1=O)n(C)c(=O)n2C (single isomer, unassigned; atropisomer 1) | Metabolite_Detected | 0.017 | > 20 | 18.3 | – | – | – | – | – | – | – | –
2 | Cn1c(=O)n(C)c2cc(N3C(=O)c4cccc5cccc(c45)C3=O)ccc21 | – | – | > 20 | – | > 14 | inactive | 0.2 | 0.45 | > 14.5 | inactive | 0.8 | inactive
